Assay results taken from patent publication US20140329681A1, “METHOD FOR CONTROLLING WEEDS IN SUGAR CANE FIELD” (SUMITOMO CHEMICAL COMPANY, LIMITED, priority 2011, published 2014).

Assays:
Amaranthus retroflexus = assay: Pot test, herbicide sprayed on the soil surface after planting one-node stem cuttings: herbicidal efficacy; assay type: in vivo; settings: Example 5; cuttings treated with strobilurin fungicides (kresoxim-methyl, azoxystrobin etc.); soil surface spray on day of planting; four weeks after application
Experimental: (§1) Stem cuttings of sugar cane, 30 cm to 40 cm long, are placed in wet soil to stimulate germination. Stem cuttings on which a bud grows to about 1 cm long are selected and the stem cuttings are cut to have one node and a length of 3 cm. Plastic pots are filled with soil and Amaranthus retroflexus is seeded therein. The stem cuttings of sugar cane are planted in the soil in the pots at a depth of 2 cm. […] The test pots are then placed in a greenhouse.
(§2) The herbicidal efficacy and phytotoxicity are determined four weeks after the application of the herbicides.
as §1, with “3 cm. The stem cuttings are treated with clothianidin, thiamethoxam, imidacloprid, dinotefuran, nitenpyram, acetamiprid, or thiacloprid. Plastic pots” for “3 cm. Plastic pots”, “sugar cane treated with the pesticides are planted” for “sugar cane are planted”
(§3) Stem cuttings of sugar cane, 30 cm to 40 cm long, are placed in wet soil to stimulate germination. Stem cuttings on which a bud grows to about 1 cm long are selected and the stem cuttings are cut to have one node and a length of 3 cm. The stem cuttings are treated with kresoxim-methyl, azoxystrobin, trifloxystrobin, fluoxastrobin, picoxystrobin, pyraclostrobin, dimoxystrobin, pyribencarb, metominostrobin, orysastrobin, enestrobin, pyraoxystrobin, or pyrametostrobin. Plastic pots are filled with soil and Amaranthus retroflexus is seeded therein. The stem cuttings of sugar cane treated with the fungicides are planted in the soil in the pots at a depth of 2 cm. […] The test pots are then placed in a greenhouse. The herbicidal efficacy and phytotoxicity are determined four weeks after the application of the herbicides.
Stem cuttings of sugar cane, 30 cm to 40 cm long, are placed in wet soil to stimulate germination. Stem cuttings on which a bud grows to about 1 cm long are selected and the stem cuttings are cut to have one node and a length of 3 cm. The stem cuttings are treated with azaconazole, bitertanol, bromuconazole, cyproconazole, difenoconazole, diniconazole, epoxiconazole, fenbuconazole, fluquinoconazole, flusilazole, flutriafol, hexaconazole, imibenconazole, ipconazole, metconazole, myclobutanil, penconazole, propiconazole, prothioconazole, simeconazole, tebuconazole, tetraconazole, triadimenol, triticonazole, fenarimol, nuarimol, pyrifenox, imazalil, oxpoconazole fumarate, peforazoate, prochloraz, or triflumizole. Plastic pots are filled with soil and Amaranthus retroflexus is seeded therein. The stem cuttings of sugar cane treated with the fungicides are planted in the soil in the pots at a depth of 2 cm. […] The test pots are then placed in a greenhouse. […]

sugar cane = assay: Pot test, herbicide sprayed on the soil surface after planting one-node stem cuttings: phytotoxicity
Experimental: as §1, §2
as §1, with “3 cm. The stem cuttings are treated with clothianidin, thiamethoxam, imidacloprid, dinotefuran, nitenpyram, acetamiprid, or thiacloprid. Plastic pots” for “3 cm. Plastic pots”, “sugar cane treated with the pesticides are planted” for “sugar cane are planted”
as §3
Stem cuttings of sugar cane, 30 cm to 40 cm long, are placed in wet soil to stimulate germination. Stem cuttings on which a bud grows to about 1 cm long are selected and the stem cuttings are cut to have one node and a length of 3 cm. The stem cuttings are treated with azaconazole, bitertanol, bromuconazole, cyproconazole, difenoconazole, diniconazole, epoxiconazole, fenbuconazole, fluquinoconazole, flusilazole, flutriafol, hexaconazole, imibenconazole, ipconazole, metconazole, myclobutanil, penconazole, propiconazole, prothioconazole, simeconazole, tebuconazole, tetraconazole, triadimenol, triticonazole, fenarimol, nuarimol, pyrifenox, imazalil, oxpoconazole fumarate, peforazoate, prochloraz, or triflumizole. Plastic pots are filled with soil and Amaranthus retroflexus is seeded therein. The stem cuttings of sugar cane treated with the fungicides are planted in the soil in the pots at a depth of 2 cm. […] The test pots are then placed in a greenhouse.
as §1, with “3 cm. The stem cuttings are treated with metalaxyl or metalaxyl-M. Plastic pots” for “3 cm. Plastic pots”

[1] = Example 5, cuttings treated with strobilurin fungicides (kresoxim-methyl, azoxystrobin etc.), soil surface spray on day of planting, four weeks after application

Row | Compound | herbicidal efficacy (Amaranthus retroflexus) | phytotoxicity (sugar cane; [1]) | phytotoxicity (sugar cane; in vivo)
1 | CC1(C)CON(Cc2ccccc2Cl)C1=O [clomazon] | the control effect against the weed can be observed |  | 
2 | COc1cc(OC)nc(NC(=O)[N-]S(=O)(=O)c2ncccc2OCC(F)(F)F)n1.[Na+] [trifloxysulfuron-sodium] | the control effect against the weed can be observed | no phytotoxicity problematic to sugar cane is observed | 
3 | COc1c(Cl)ccc(Cl)c1C(=O)[O-].[Na+] [dicamba-sodium] | the control effect against the weed can be observed | no phytotoxicity problematic to sugar cane is observed | 
4 | bicyclopyrone | the control effect against the weed can be observed | no phytotoxicity problematic to sugar cane is observed | 
5 | COC(=O)c1ccc(I)cc1S(=O)(=O)[N-]C(=O)Nc1nc(C)nc(OC)n1.[Na+] [iodosulfuron-methyl-sodium] | the control effect against the weed can be observed | no phytotoxicity problematic to sugar cane is observed | 
6 | CCNc1nc(NC(C)C)nc(SC)n1 [ametryn] | the control effect against the weed can be observed |  | no phytotoxicity problematic to sugar cane is observed
7 | CNC(=O)N(C)c1nnc(C(C)(C)C)s1 [tebuthiuron] | the control effect against the weed can be observed | no phytotoxicity problematic to sugar cane is observed | 
8 | CCNc1nc(Cl)nc(NC(C)C)n1 [atrazine] | the control effect against the weed can be observed | no phytotoxicity problematic to sugar cane is observed | 
9 | CN(C)C(=O)Nc1ccc(Cl)c(Cl)c1 [diuron] | the control effect against the weed can be observed | no phytotoxicity problematic to sugar cane is observed | 
10 | CCc1cccc(C)c1N(C(=O)CCl)[C@@H](C)COC [S-metolachlor] | the control effect against the weed can be observed | no phytotoxicity problematic to sugar cane is observed | 
11 | CSc1nnc(C(C)(C)C)c(=O)n1N [metribuzin] | the control effect against the weed can be observed | no phytotoxicity problematic to sugar cane is observed | 
12 | CCC(CC)Nc1c([N+](=O)[O-])cc(C)c(C)c1[N+](=O)[O-] [pendimethalin] | the control effect against the weed can be observed | no phytotoxicity problematic to sugar cane is observed | 
13 | CCc1cccc(C)c1N(C(=O)CCl)C(C)COC (centres unmarked) [metolachlor] | the control effect against the weed can be observed | no phytotoxicity problematic to sugar cane is observed | 
14 | CN(C)c1nc(=O)n(C2CCCCC2)c(=O)n1C [hexazinone] | the control effect against the weed can be observed |  | no phytotoxicity problematic to sugar cane is observed
15 | CCCN(CCC)c1c([N+](=O)[O-])cc(C(F)(F)F)cc1[N+](=O)[O-] [trifluralin] | the control effect against the weed can be observed | no phytotoxicity problematic to sugar cane is observed | 
16 | CC(C)c1nn(C(=O)NC(C)(C)C)c(=O)n1N [amicarbazone] | the control effect against the weed can be observed | no phytotoxicity problematic to sugar cane is observed | 
17 | CCNc1nc(Cl)nc(NCC)n1 [simazine] | the control effect against the weed can be observed | no phytotoxicity problematic to sugar cane is observed | 
18 | CS(=O)(=O)c1ccc(C(=O)C2C(=O)CCCC2=O)c([N+](=O)[O-])c1 [mesotrione] | the control effect against the weed can be observed | no phytotoxicity problematic to sugar cane is observed | 
19 | CCOc1ccccc1OS(=O)(=O)NC(=O)Nc1nc(OC)cc(OC)n1 [ethoxysulfuron] | the control effect against the weed can be observed |  | no phytotoxicity problematic to sugar cane is observed
20 | CNC.COc1c(Cl)ccc(Cl)c1C(=O)O [dicamba-dimethylamine] | the control effect against the weed can be observed | no phytotoxicity problematic to sugar cane is observed | 
21 | CCc1cccc(CC)c1N(COC)C(=O)CCl [alachlor] | the control effect against the weed can be observed | no phytotoxicity problematic to sugar cane is observed | 
22 | COc1c(Cl)ccc(Cl)c1C(=O)O [dicamba] | the control effect against the weed can be observed | no phytotoxicity problematic to sugar cane is observed | 
23 | Cc1cnc(C2=NC(=O)C(C)(C(C)C)N2)c(C(=O)O)c1 (centres unmarked) [imazapic] | the control effect against the weed can be observed |  | no phytotoxicity problematic to sugar cane is observed
24 | CS(=O)(=O)c1cc(C(F)(F)F)ccc1C(=O)c1cnoc1C1CC1 [isoxaflutole] | the control effect against the weed can be observed |  | no phytotoxicity problematic to sugar cane is observed
25 | COC(=O)c1c(Cl)nn(C)c1S(=O)(=O)NC(=O)Nc1nc(OC)cc(OC)n1 [halosulfuron-methyl] | the control effect against the weed can be observed | no phytotoxicity problematic to sugar cane is observed | 
26 | COc1c(Cl)ccc(Cl)c1C(=O)[O-].[K+] [dicamba-potassium] | the control effect against the weed can be observed | no phytotoxicity problematic to sugar cane is observed | 
27 | COc1c(Cl)ccc(Cl)c1C(=O)O.NCCOCCO [dicamba-diglycolamine] | the control effect against the weed can be observed | no phytotoxicity problematic to sugar cane is observed | 
